Laboratory results as given in patent US7368578B2, “Five-membered heterocyclic compounds” (Takeda Pharmaceutical Company Limited, priority 2002, dated 2008).

Row | SMILES | melting point [°C]
1 | Cc1oc(-c2ccccc2)nc1COc1ccc(C(=O)Nc2nn(-c3ccccc3)cc2C=O)cc1 [Example 233, N-(4-formyl-1-phenyl-1H-pyrazol-3-yl)-4-[(5-methyl-2-phenyl-1,3-oxazol-4-yl)methoxy]benzamide] | 185 to 186
2 | COC(=O)COc1cccc(-c2nc(COc3ccc(COc4nn(-c5ccccc5)cc4C=O)cc3OC)c(C)o2)c1 [Example 235, methyl (3-{4-[(4-{[(4-formyl-1-phenyl-1H-pyrazol-3-yl)oxy]methyl}-2-methoxyphenoxy)methyl]-5-methyl-1,3-oxazol-2-yl}phenoxy)acetate] | 107 to 109
3 | COC(=O)c1cccc(-c2nc(COc3ccc(COc4nn(-c5ccccc5)cc4C=O)cc3)c(C)o2)c1 [Example 237, methyl 3-{4-[(4-{[(4-formyl-1-phenyl-1H-pyrazol-3-yl)oxy]methyl}phenoxy)methyl]-5-methyl-1,3-oxazol-2-yl}benzoate] | 161 to 162
4 | CCOC(=O)c1ccc(-c2nc(COc3ccc(COc4nn(-c5ccccc5)cc4C=O)cc3OC)c(C)o2)o1 [Example 243, ethyl 5-{4-[(4-{[(4-formyl-1-phenyl-1H-pyrazol-3-yl)oxy]methyl}-2-methoxyphenoxy)methyl]-5-methyl-1,3-oxazol-2-yl}-2-furancarboxylate] | 143 to 145
5 | COc1cc(C(=O)Nc2nn(-c3ccccc3)cc2C=O)ccc1OCc1nc(-c2ccccc2)oc1C [Example 245, N-(4-formyl-1-phenyl-1H-pyrazol-3-yl)-3-methoxy-4-[(5-methyl-2-phenyl-1,3-oxazol-4-yl)methoxy]benzamide] | 234 to 235
6 | CCOC(=O)Cc1ccc(-c2nc(COc3ccc(COc4nn(-c5ccccc5)cc4C=O)cc3OC)c(C)o2)cc1 [Example 246, ethyl (4-{4-[(4-{[(4-formyl-1-phenyl-1H-pyrazol-3-yl)oxy]methyl}-2-methoxyphenoxy)methyl]-5-methyl-1,3-oxazol-2-yl}phenyl)acetate] | 157 to 158
7 | CCOC(=O)Cc1cccc(-c2nc(COc3ccc(COc4nn(-c5ccccc5)cc4C=O)cc3OC)c(C)o2)c1 [Example 253, ethyl (3-{4-[(4-{[(4-formyl-1-phenyl-1H-pyrazol-3-yl)oxy]methyl}-2-methoxyphenoxy)methyl]-5-methyl-1,3-oxazol-2-yl}phenyl)acetate] | 145 to 146
8 | COC(=O)c1cc(-c2nc(COc3ccc(COc4nn(-c5ccccc5)cc4C=O)cc3OC)c(C)o2)ccc1OS(C)(=O)=O [Example 255, methyl 5-{4-[(4-{[(4-formyl-1-phenyl-1H-pyrazol-3-yl)oxy]methyl}-2-methoxyphenoxy)methyl]-5-methyl-1,3-oxazol-2-yl}-2-(methanesulfonyloxy)benzoate] | 136 to 137
9 | COC(=O)c1cc(-c2nc(COc3ccc(COc4nn(-c5ccccc5)cc4C=O)cc3OC)c(C)o2)ccc1OC [Example 256, methyl 5-{4-[(4-{[(4-formyl-1-phenyl-1H-pyrazol-3-yl)oxy]methyl}2-methoxyphenoxy)methyl]-5-methyl-1,3-oxazol-2-yl}-2-methoxybenzoate] | 165 to 166
10 | CCOC(=O)/C=C/c1nc(-c2ccccc2)oc1COc1ccc(OCc2nc(-c3ccccc3)oc2C)cc1 [Example 258, ethyl (2E)-3-[5-({4-[(5-methyl-2-phenyl-1,3-oxazol-4-yl)methoxy]phenoxy}methyl)-2-phenyl-1,3-oxazol-4-yl]-2-propenoate] | 107 to 108
11 | CCOC(=O)/C=C/c1cn(Cc2ccccc2)nc1OCc1ccc(OCc2nc(-c3ccco3)oc2C)c(OC)c1 [Example 259, ethyl (2E)-3-{1-benzyl-3-[(4-{[2-(2-furyl)-5-methyl-1,3-oxazol-4-yl]methoxy}-3-methoxybenzyl)oxy]-1H-pyrazol-4-yl}-2-propenoate] | 147 to 148

Other lines, results leading:

Row | melting point [°C] | SMILES
12 | 125 to 126 | CCc1nc(/C=C\c2cn(-c3ccccc3)nc2OCc2ccc(OCc3nc(-c4cccc(C(=O)OC)c4)oc3C)c(OC)c2)cs1 [Example 225 (Z form), methyl 3-[4-({4-[({4-[(Z)-2-(2-ethyl-1,3-thiazol-4-yl)ethenyl]-1-phenyl-1H-pyrazol-3-yl}oxy)methyl]-2-methoxyphenoxy}methyl)-5-methyl-1,3-oxazol-2-yl]benzoate]
13 | 161 to 162 | COc1cc(COc2nn(-c3ccccc3)cc2C=O)ccc1OCc1nc(-c2cccnc2)oc1C [Example 227, 3-({3-methoxy-4-[(5-methyl-2-pyridin-3-yl-1,3-oxazol-4-yl)methoxy]benzyl}oxy)-1-phenyl-1H-pyrazole-4-carbaldehyde]
14 | 76 to 78 | CCc1nc(/C=C/c2cn(-c3ccccc3)nc2OCc2ccc(OCc3nc(N4CCOCC4)sc3C)c(OC)c2)cs1 [Example 232 (E form), 4-[4-({4-[({4-[(E)-2-(2-ethyl-1,3-thiazol-4-yl)ethenyl]-1-phenyl-1H-pyrazol-3-yl}oxy)methyl]-2-methoxyphenoxy}methyl)-5-methyl-1,3-thiazol-2-yl]morpholine]
15 | 112 to 114 | CCc1nc(/C=C\c2cn(-c3ccccc3)nc2OCc2ccc(OCc3nc(N4CCOCC4)sc3C)c(OC)c2)cs1 [Example 232 (Z form), 4-[4-({4-[({4-[(Z)-2-(2-ethyl-1,3-thiazol-4-yl)ethenyl]-1-phenyl-1H-pyrazol-3-yl}oxy)methyl]-2-methoxyphenoxy}methyl)-5-methyl-1,3-thiazol-2-yl]morpholine]
16 | 193 to 194 | COc1cc(COc2nn(-c3ccccc3)cc2C=O)ccc1OCc1nc(-c2cccc(O)c2)oc1C [Example 234, 3-[(4-{[2-(3-hydroxyphenyl)-5-methyl-1,3-oxazol-4-yl]methoxy}-3-methoxybenzyl)oxy]-1-phenyl-1H-pyrazole-4-carbaldehyde]
17 | 149 to 150 | COc1cc(COc2nn(-c3ccccc3)cc2C=O)ccc1OCc1nc(N2CCOCC2)sc1C [Example 238, 3-({3-methoxy-4-[(5-methyl-2-morpholin-4-yl-1,3-thiazol-4-yl)methoxy]benzyl}oxy)-1-phenyl-1H-pyrazole-4-carbaldehyde]
18 | 154 to 155 | CCc1nc(/C=C/c2cn(-c3ccccc3)nc2OCc2ccc(OCc3nc(-c4ccc(C(=O)O)o4)oc3C)c(OC)c2)cs1 [Example 242, 5-[4-({4-[({4-[(E)-2-(2-ethyl-1,3-thiazol-4-yl)ethenyl]-1-phenyl-1H-pyrazol-3-yl}oxy)methyl]-2-methoxyphenoxy}methyl)-5-methyl-1,3-oxazol-2-yl]-2-furancarboxylic acid]
19 | 150 to 151 | CCOC(=O)c1ccc(-c2nc(COc3ccc(COc4nn(-c5ccccc5)cc4/C=C/c4csc(CC)n4)cc3OC)c(C)o2)o1 [Example 244 (E form), ethyl 5-[4-({4-[({4-[(E)-2-(2-ethyl-1,3-thiazol-4-yl)ethenyl]-1-phenyl-1H-pyrazol-3-yl}oxy)methyl]-2-methoxyphenoxy}methyl)-5-methyl-1,3-oxazol-2-yl]-2-furancarboxylate]
20 | 133 to 135 | CCOC(=O)c1ccc(-c2nc(COc3ccc(COc4nn(-c5ccccc5)cc4/C=C\c4csc(CC)n4)cc3OC)c(C)o2)o1 [Example 244 (Z form), ethyl 5-[4-({4-[({4-[(Z)-2-(2-ethyl-1,3-thiazol-4-yl)ethenyl]-1-phenyl-1H-pyrazol-3-yl}oxy)methyl]-2-methoxyphenoxy}methyl)-5-methyl-1,3-oxazol-2-yl]-2-furancarboxylate]
